Series [1] has as its system A549 (human non-small lung cell). Put plainly: In vitro antitumor effect against human tumor cell lines, SRB assay, A549. The class given is cell-based. Conditions: A549 cells, 48 hours; for IC50: Homo sapiens, read-out: ED50 A 549. In a few lines: (§1)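 Cells seeded at 5×10^3–2×10^4 per well in RPMI 1640/10% FBS, grown 24 h, then exposed to compound 48 h (DMSO below 0.5%). SRB staining read at 520 nm; response computed from time-zero, untreated and treated OD as 100×(T−Tz)/(C−Tz) or 100×(T−Tz)/Tz when T<Tz.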
(In general: The SRB assay estimates cell density from bound dye.)

The test system of series [2] is ICR mice. Kind of series: Acute toxicity test (LD50), Litchfield-Wilcoxon method. The class given is in vivo. The settings on record: male, i.v., observed 14 days.
The subject of series [3] is HCT-15 (human colon). Put plainly: In vitro antitumor effect against human tumor cell lines, SRB assay, HCT-15. The format is cell-based. Conditions: HCT 15 cells, 48 hours; for IC50: Homo sapiens, read-out: ED50 HCT 15. In a few lines:
as §1

In series [4] the test system is SKOV-3 (human ovarian). Kind of series: In vitro antitumor effect against human tumor cell lines, SRB assay, SKOV-3. The format is cell-based. Conditions: SK-OV-3 cells, 48 hours; for IC50: Homo sapiens, read-out: ED50 SK-OV-3. In a few lines:
as §1

The test system of series [5] is XF 498 (human CNS). Kind of series: In vitro antitumor effect against human tumor cell lines, SRB assay, XF 498. The format is cell-based. Conditions: 48 hours; for IC50: Homo sapiens, XF498, XF-498 cells, read-out: ED50 XF-498. In a few lines:
as §1

For series [6], the system named is SKMEL-2 (human melanoma). Put plainly: In vitro antitumor effect against human tumor cell lines, SRB assay, SKMEL-2. The format is cell-based. Conditions: SK-MEL-2 cells, 48 hours; for IC50: Homo sapiens, read-out: ED50 SK-MEL-2. In a few lines:
as §1

In series [7] the test system is P388 (mouse lymphoid neoplasma cell). Put plainly: In vitro antitumor effects against animal leukemia cells, dye exclusion assay. The format is cell-based. Conditions: 48 hours, trypan blue dye exclusion, read-out: P388 (IC50, concentration showing 50% cell growth inhibition compared with the control). The protocol:
In vitro antitumor effects against animal leukemia cells.
Tumor cell line: P388 (mouse lymphoid neoplasma cell)
B. Method: Dye Exclusion Assay.
1) Concentrations of P388 cells being cultured in RPMI 1640 media containing 10% FBS were regulated to 1×10^6 cells/ml.
2) Sample drugs of respective concentrations diluted in the ratio of log doses were added into each cell culture and cultured at 37° C., for 48 hours, in […] incubator, and then viable cell numbers were measured by dye exclusion test using trypan blue.

A short description of series [8]: Acute toxicity test (LD50), Litchfield-Wilcoxon method. The format is in vivo. Conditions: mouse, in vivo, ICR mice, male, observed 14 days.

≈ marks a conversion by molar mass, not a printed value. Read-outs that look alike come from different tables or passages of the source. Some results are limits rather than exact numbers.

Broadly, the LD50 is the dose expected to kill half of the subjects tested.

Regarding `COc1nc(C)c(C)cc1N=C(NO)N1CCN(c2cc(C)cc(C)c2)CC1` [Example 99, N-Hydroxy-N′-(5,6-dimethyl-2-methoxypyridin-3-yl)-[4-(3,5-dimethylphenyl)piperazin-1-yl]carboxyimidamide], the “ED50 A 549” value in series [1] turned out to be 12 ng/mL (≈ 31.3 nM). In series [2], this compound came in with an LD50 i.v. of over 200 mg/kg. For the same compound, in series [3], the “ED50 HCT 15” value worked out at 3 ng/mL (≈ 7.82 nM). Moreover, in series [4], the “ED50 SK-OV-3” value amounted to 8 ng/mL (≈ 20.9 nM). Besides, the “ED50 XF-498” value in series [5] (XF-498 cells) was 10 ng/mL (≈ 26.1 nM). Also, the “ED50 SK-MEL-2” value in series [6] was 6 ng/mL (≈ 15.6 nM).

On to `COc1nc(C)c(C)nc1NC(=O)N1CCN(c2cc(C)cc(C)c2)CC1` [Example 7, 1-[(5,6-Dimethyl-2-methoxypyrazin-3-yl)aminocarbonyl]-4-(3,5-dimethylphenyl)piperazine], for which the IC50 stood at 20 ng/mL (≈ 54.1 nM) in series [7]; 2.4 ng/mL (≈ 6.5 nM) in series [1]; 2.8 ng/mL (≈ 7.58 nM) in series [3]; 7.2 ng/mL (≈ 19.5 nM) in series [4]; 2.7 ng/mL (≈ 7.31 nM) in series [5]; 2.3 ng/mL (≈ 6.23 nM) in series [6]. In addition, in series [8] (iv, i.v., read-out: LD50 i.v.), the LD50 at 14 days is 75 mg/kg.

`COc1cc(OC)cc(N2CCN(C(=O)Nc3nc4ccccc4nc3OC)CC2)c1` [Example 38, 1-[(2-Methoxyquinoxalin-3-yl)aminocarbonyl]-4-(3,5-dimethoxyphenyl)piperazine]: the IC50 amounted to 10 ng/mL (≈ 23.6 nM) in series [7]; 0.03 ng/mL (≈ 0.0708 nM) in series [1]; 0.13 ng/mL (≈ 0.307 nM) in series [3]; 0.09 ng/mL (≈ 0.213 nM) in series [4]; 0.11 ng/mL (≈ 0.26 nM) in series [5]; 0.04 ng/mL (≈ 0.0945 nM) in series [6]. The LD50 at 14 days is 97 mg/kg in series [8] (iv, i.v., read-out: LD50 i.v.) and 410 mg/kg in series [8] (po, p.o., read-out: LD50 p.o.).

Take `COc1nc(C)c(C)cc1N=C(NO)N1CCN(c2cccc(Br)c2)CC1` [Example 104, N-Hydroxy-N′-(5,6-dimethyl-2-methoxypyridin-3-yl)-[4-(3-bromophenyl)piperazin-1-yl]carboxyimidamide]: the LD50 i.v. in series [2] is reported as 212 mg/kg.

Source of the values: US6683184B2, “Piperazine derivatives and process for the preparation thereof” (Samjin Pharmaceutical Co., Ltd., priority 1999, dated 2004).
